This is an account of results in PubChem BioAssay (NCI).

“And” between values parts separate entries of the source, which are not always exact repeats. Identical values can stand only once.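 Step 1: Grow cells in 96-well plates. Step 2: Expose to compound for 48 hours at 5 concentrations. Step 3: Interpolate endpoints linearly; if unreached, use highest concentration. GI50 = concentration required for 50% inhibition of growth. TGI: total growth inhibition.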

Among the test systems are M14 melanoma; SK-MEL-28 melanoma; A549 NSCLC; T-47D breast; RPMI-8226 leukemia; MOLT-4 leukemia; U251 CNS; KM12 colon; UACC-257 melanoma; SF-539 CNS.
What all share (test): growth of human tumour cells (NCI), 48 h

As for `COc1ccc(-c2csc(Nc3cccc(-c4csc(C)n4)c3)n2)cc1`, the GI50 in the assay on M14 melanoma is 2.79 µM; with SK-MEL-28 melanoma, 1.98 µM; with A549 NSCLC it was 0.902 µM; with T-47D breast it was 11.5 µM; in the assay on RPMI-8226 leukemia it was 2.52 µM; with MOLT-4 leukemia, 0.287 µM. The GI50 with U251 CNS was 0.783 µM; with KM12 colon it was 1.17 µM; in the assay on UACC-257 melanoma, 3.26 µM; in the assay on SF-539 CNS it was 1.57 µM. For the same molecule, the TGI with M14 melanoma was 14.2 µM; with SK-MEL-28 melanoma it was > 12.1 µM; in the assay on A549 NSCLC, 49.8 µM; with T-47D breast, > 50 µM; in the assay on RPMI-8226 leukemia, > 50 µM; with MOLT-4 leukemia, 7.11 µM. Besides, the TGI in the assay with U251 CNS was > 27.6 µM; in the assay with KM12 colon, > 16.7 µM; in the assay with UACC-257 melanoma it was 19.7 µM; with SF-539 CNS, 8.27 µM.

Consider `CCOC(=O)c1c(CN2CCN(C)CC2)nc2ccc(Cl)cc2c1-c1ccccc1`, for which the GI50 in the assay with M14 melanoma is 1.91 µM; in the assay on SK-MEL-28 melanoma, 1.74 µM; with A549 NSCLC, 14.1 µM; with T-47D breast, 9.41 µM; in the assay on RPMI-8226 leukemia, 2.98 µM; with MOLT-4 leukemia, 2.92 µM. Also, the GI50 in the assay on U251 CNS is 8.26 µM; in the assay on KM12 colon it was 6.76 µM; with UACC-257 melanoma, 2.03 µM; with SF-539 CNS it was 8.72 µM. Further, the TGI in the assay with M14 melanoma stood at 3.78 µM; in the assay with SK-MEL-28 melanoma, 3.19 µM; in the assay on A549 NSCLC it was 28.5 µM; in the assay with T-47D breast, 24.4 µM; in the assay with RPMI-8226 leukemia, 12.7 µM; in the assay on MOLT-4 leukemia it was 12.9 µM. In addition, the TGI in the assay with U251 CNS was 23 µM; with KM12 colon, 19.1 µM; with UACC-257 melanoma it was 3.98 µM; with SF-539 CNS it was 21 µM.

With `C[C@@H]1CCc2ncc(F)cc2[C@H]2CCCN2c2ccn3ncc(c3n2)C(=O)N1`, the GI50 in the assay on M14 melanoma is > 100 µM; in the assay on SK-MEL-28 melanoma it was > 100 µM; with A549 NSCLC, 69.3 µM; in the assay with T-47D breast, 86.1 µM; in the assay on RPMI-8226 leukemia, 94.8 µM; in the assay on MOLT-4 leukemia, 36.1 µM. In addition, the GI50 with U251 CNS is > 100 µM; in the assay on UACC-257 melanoma, > 100 µM; in the assay with SF-539 CNS it was 54.6 µM. In addition, the TGI in the assay with M14 melanoma, with SK-MEL-28 melanoma, in the assay on A549 NSCLC, with T-47D breast, in the assay on RPMI-8226 leukemia and with MOLT-4 leukemia was > 100 µM throughout. For the same molecule, the TGI in the assay with U251 CNS, in the assay on KM12 colon, in the assay on UACC-257 melanoma and in the assay with SF-539 CNS was > 100 µM in each case.

As to `NC(=O)/C(=C/n1cnc(-c2cc(C(F)(F)F)cc(C(F)(F)F)c2)n1)c1cncnc1`, the GI50 in the assay on M14 melanoma is 0.715 µM; in the assay with SK-MEL-28 melanoma it was 0.503 µM; in the assay on A549 NSCLC it was 0.552 µM; with T-47D breast it was 0.116 µM; in the assay on RPMI-8226 leukemia, 0.102 µM; in the assay on MOLT-4 leukemia, 0.0884 µM. Also, the GI50 in the assay with U251 CNS was 0.301 µM; in the assay on KM12 colon it was 1.19 µM; with UACC-257 melanoma, 0.86 µM; with SF-539 CNS, 0.0806 µM. Also, the TGI in the assay on M14 melanoma was 7.86 µM; with SK-MEL-28 melanoma it was 11.7 µM; in the assay with A549 NSCLC, > 47.1 µM; in the assay with T-47D breast it was 11.8 µM; in the assay on RPMI-8226 leukemia, 9.53 µM; in the assay on MOLT-4 leukemia, 6.32 µM. Besides, the TGI in the assay with U251 CNS amounted to 12.3 µM; with KM12 colon, 13.4 µM; in the assay with UACC-257 melanoma, 8.99 µM; in the assay on SF-539 CNS it was 1.45 µM.

In the case of `N#Cc1cc(S(=O)(=O)Nc2nc3cc(Cl)ccc3o2)c(SCc2ccccc2)cc1Cl`, the GI50 was 12.6 µM in the assay with M14 melanoma; 12.8 µM in the assay on SK-MEL-28 melanoma; 14.2 µM in the assay on A549 NSCLC; 15.9 µM in the assay on T-47D breast; 16.3 µM in the assay with RPMI-8226 leukemia; 18.6 µM in the assay with MOLT-4 leukemia. Also, the GI50 was 13.4 µM in the assay on U251 CNS, 14.9 µM with KM12 colon, 13 µM with UACC-257 melanoma and 13.5 µM in the assay with SF-539 CNS. For the same molecule, the TGI amounted to 25.1 µM with M14 melanoma; 25.4 µM with SK-MEL-28 melanoma; 27.2 µM in the assay with A549 NSCLC; 30.6 µM with T-47D breast; 43 µM in the assay with RPMI-8226 leukemia; 39 µM with MOLT-4 leukemia. Further, the TGI worked out at 26.2 µM in the assay on U251 CNS, 28.1 µM in the assay with KM12 colon, 25.7 µM with UACC-257 melanoma and 26.4 µM in the assay with SF-539 CNS.

As for `CC(=O)OCC1OC(n2c3c(cc(C#N)c2=S)CCCC3)C(OC(C)=O)C(OC(C)=O)C1OC(C)=O` (stereo not given), the TGI in the assay on M14 melanoma, with SK-MEL-28 melanoma, with A549 NSCLC, in the assay with T-47D breast, in the assay on RPMI-8226 leukemia and in the assay on MOLT-4 leukemia was > 100 µM in each case. Besides, the TGI in the assay with U251 CNS is > 100 µM and 53 µM; in the assay with KM12 colon, > 100 µM; in the assay on UACC-257 melanoma, > 100 µM; in the assay with SF-539 CNS, > 100 µM. Further, the GI50 was > 100 µM in the assay on T-47D breast; 32.6 µM and > 100 µM in the assay with RPMI-8226 leukemia; 31.9 µM and > 100 µM with MOLT-4 leukemia; > 100 µM and 21.9 µM in the assay with U251 CNS; 31.7 µM and > 100 µM with KM12 colon; > 100 µM and 48.1 µM with SF-539 CNS.

Take `COc1ccc(-c2cc(/C=C/C(=O)c3ccc(N)cc3)[nH]n2)cc1`: the GI50 in the assay on M14 melanoma is 2.67 µM; in the assay with SK-MEL-28 melanoma, 1.87 µM; with A549 NSCLC, 2.55 µM; in the assay with T-47D breast, 1.47 µM; with RPMI-8226 leukemia, 0.6 µM; in the assay with MOLT-4 leukemia it was 2.32 µM. For the same molecule, the GI50 in the assay with U251 CNS is 1.24 µM; in the assay with KM12 colon it was 1.54 µM; in the assay with UACC-257 melanoma it was 1.9 µM; in the assay with SF-539 CNS, 1.47 µM. Moreover, the TGI amounted to 6.54 µM in the assay with M14 melanoma; 4.01 µM with SK-MEL-28 melanoma; 10.2 µM with A549 NSCLC; 9.77 µM in the assay on T-47D breast; 3.22 µM in the assay on RPMI-8226 leukemia; 9.48 µM in the assay on MOLT-4 leukemia. The TGI amounted to 2.57 µM with U251 CNS, 3.42 µM in the assay on KM12 colon, 4.21 µM in the assay on UACC-257 melanoma and 3.48 µM with SF-539 CNS.
